Measurements reported in patent US12365687B2 (Hoffmann-La Roche Inc., priority 2021, dated 2025).
Like-named read-outs stand apart in the source and are kept apart here.

What was measured:
[1] = molecular target: human GABAA α5β2γ1 receptor (Homo sapiens (Human), UniProt P31644+Q8N1C3); assay: Radioligand binding assay for γ1-containing GABAA subtypes, [3H]RO7239181 competition (α5β2γ1)
Description: (§1) The affinity of compounds at GABAA γ1 subunit-containing receptors was measured by competition for [^3H]RO7239181 (67.3 Ci/mmol; Roche) binding to membranes from HEK293F cells (ThermoFisher R79007) expressing human (transiently transfected) receptors of composition α5β2γ1, α2β2γ1, α1β2γ1.
(§2) Harvested pellets from HEK293F cells expressing the different GABAA receptor subtypes were resuspended in Mannitol Buffer pH 7.2-7.4 (Mannitol 0.29 M, Triethylamine 10 mM, Acetic acid 10 mM, EDTA 1 mM plus protease inhibitors (20 tablets Complete, Roche Diagnostics Cat. No. 05 056 489 001 per liter)), washed two times and then resuspended at 1:10 to 1:15 dilution in the same buffer. Cell disruption was performed by stirring the suspension in a Parr vessel #4637 at 435 psi for 15 minutes, and then the suspensions were centrifuged at 1000×g for 15 minutes at 4° C. (Beckman Avanti J-HC; rotor JS-4.2). The supernatant (S1) was transferred in a 2 l Schott flask and the pellet (P1) was resuspended with Mannitol Buffer up to 175 ml. The resuspended pellet was transferred into a 250 ml Corning centrifugal beaker and centrifuged at 1500×g for 10 minutes at 4° C. (Beckman Avanti J-HC; rotor JS-4.2). The supernatant (S1) was then transferred in the 2 l Schott flask and the pellet was discarded. The supernatants (S1) were centrifuged in 500 ml Beckman polypropylene centrifugal beaker at 15′000×g for 30 minutes at 4° C. (Beckman Avanti J-20 XP; rotor JLA-10.500). The pellet (P2) was resuspended with Mannitol Buffer 1:1 and frozen at −80° C. The supernatant (S2) was centrifuged in 100 ml Beckman polypropylene centrifugal tubes at 48000×g for 50 minutes at 4° C. (Beckman Avanti J-20 XP; rotor JA-18). The supernatant (S3) was discarded and the pellet (P3) was resuspended with 1:1 Mannitol Buffer. The P2 and P3 protein concentration was determined with the BIORAD Standard assay method with bovine serum albumin as standard and measured on the NANO-Drop 1000. The membrane suspension was aliquots (500 μl per tube) and stored at −80° C. until required.
(§3) Membrane homogenates were resuspended and polytronised (Polytron PT1200E Kinematica AG) in Potassium Phosphate 10 mM, KCl 100 mM binding buffer at pH 7.4 to a final assay concentration determined with a previous experiment.
(§4) Assays were incubated to equilibrium for 1 hour at 4° C. and then, membranes were filtered onto unifilter (96-well white microplate with bonded GF/C filters preincubated 20-50 minutes in 0.3% Polyethylenimine) with a Filtermate 196 harvester (Packard BioScience) and washed 4 times with cold Potassium Phosphate 10 mM pH 7.4, KCl 100 mM binding buffer. After anhydrousing, filter-retained radioactivity was detected by liquid scintillation counting. Ki values were calculated using Excel-Fit (Microsoft) and are the means of two determinations.

[2] = molecular target: human GABAA α2β2γ1 receptor (Homo sapiens (Human), UniProt P47869+Q8N1C3); assay: Radioligand binding assay for γ1-containing GABAA subtypes, [3H]RO7239181 competition (α2β2γ1)
Description: as §1, §2, §3, §4

[3] = molecular target: human GABAA α1β3γ2 receptor (Homo sapiens (Human), UniProt P14867+P18507); assay: Radioligand binding assay for γ2-containing GABAA subtypes, [3H]Flumazenil competition (α1β3γ2); conditions: for γ2/γ1 Selectivity Ratio: Ki α1β3γ2 (nM)/Ki α2β2γ1 (nM); for LogSel: Log[Ki α1β3γ2 (nM)/Ki α2β2γ1 (nM)]
Description: The affinity of compounds at GABAA γ2 subunit-containing receptors was measured by competition for [^3H]Flumazenil (81.1 Ci/mmol; Roche) binding to HEK293F cells expressing human (transiently transfected) receptors of composition α1β3γ2.
Harvested pellets from HEK293F cells expressing the different GABAA γ2 receptor subtypes were resuspended in Mannitol Buffer pH 7.2-7.4 and processed as described above for the cells expressing the GABAA γ1 subunit-containing receptors.
Assays were incubated to equilibrium for 1 hour at 4° C. and harvested onto GF/C uni-filters (Packard) by filtration using a Packard harvester and washing with ice-cold wash buffer (50 mM Tris; pH 7.5). After anhydrousing, filter-retained radioactivity was detected by liquid scintillation counting. Ki values were calculated using Excel-Fit (Microsoft) and are the means of two determinations.

[4] = molecular target: α2β2γ1 GABAA receptor subtype (Homo sapiens (Human), UniProt P47869+Q8N1C3); assay: Two-electrode voltage clamp electrophysiology in Xenopus oocytes expressing GABAA receptors (modulation of GABA EC20 current); assay type: cell-based; conditions: for Efficacy (GABA)%: % modulation of GABA EC20 = 100*(Fold increase-1), α2β2γ1 oocytes, compound at approx. 30-fold Ki; for Fold increase h-GABA-A α2β2γ1 oocyte @ 30-fold Ki: Xenopus oocytes expressing α2β2γ1, compound at approx. 30-fold its Ki α2β2γ1, GABA EC20 current
Description: Xenopus laevis oocytes at maturation stages V-VI were used for the expression of cloned mRNA encoding GABAA receptor subunits. Oocytes ready for RNA micro-injection were bought from Ecocyte, Castrop-Rauxel, Germany and stored in modified Barth's medium (composition in mM: NaCl 88, KCl 1, NaHCO3 2.4, HEPES 10, MgSO4 0.82, CaNO3 0.33, CaCl2 0.33, pH=7.5) at 20° C. until the experiment.
Oocytes were plated in 96-well plates for microinjection using the Roboinject automated instrument (MultiChannelSystems, Reutlingen, Germany). Approximately 50 nL of an aqueous solution containing the RNA transcripts for the subunits of the desired GABAA receptor subtype was injected into each oocyte. […] Oocytes were kept in modified Barth's medium (composition in mM: NaCl 88, KCl 1, NaHCO3 […], HEPES 10, MgSO4 0.82, CaNO3 0.33, CaCl2 0.33, pH=7.5) at 20° C. until the experiment.
Electrophysiological experiments were performed using the Roboocyte instrument (MultiChannelSystems, Reutlingen, Germany) on days 3 to 5 after the micro-injection of mRNA. During the experiment the oocytes were constantly superfused by a solution containing (in mM) NaCl 90, KCl 1, HEPES 5, MgCl2 1, CaCl2 1 (pH 7.4). Oocytes were impaled by two glass microelectrodes (resistance: 0.5-0.8 MΩ) which were filled with a solution containing KCl 1M+K-acetate 1.5 M and voltage-clamped to −80 mV. The recordings were performed at room temperature using the Roboocyte two-electrode voltage clamp system (Multichannelsystem). After an initial equilibration period of 1.5 min GABA was added for 1.5 min at a concentration evoking approximately 20% of a maximal current response (EC20). After another rest interval of 2.5 min GABA was again added evoking a response of similar amplitude and shape. […] Current traces were recorded at a digitization rate of 10 Hz during and shortly before and after the GABA application.
Each compound and concentration was tested on at least 3 oocytes. Different oocytes were used for different compound concentrations.
For the analysis, the digitized current traces of the first and second GABA response were superimposed and, if necessary, rescaled to equal maximal amplitudes. The ratio between the two responses during the time interval of test compound application was calculated point by point. The extremum of the resulting “ratio trace” was taken as the efficacy (“Fold increase”) of the compound expressed as “% modulation of GABA EC20” (100*(Fold increase-1)).

[5] = Ki h-GABAA α2β2γ1, [3H]RO7239181 competition binding, human GABAA α2β2γ1
[6] = Ki h-GABAA α2β2γ1, displacement of [3H]RO7239181, membranes of HEK293F cells expressing human receptors, means of two determinations

| SMILES | Ki [1] | Ki [2, 5] | Ki [2, 6] | Ki [3] | γ2/γ1 Selectivity Ratio [3] | LogSel [3] | Efficacy (GABA)% [4] | Fold increase h-GABA-A α2β2γ1 oocyte @ 30-fold Ki [4] | Ki ([2]; Ki h-GABAA α2β2γ1, Table 3, reference compounds) | γ2/γ1 Selectivity Ratio ([3]; Table 3) | LogSel ([3]; Table 3) | Ki ([3]; read-out: Ki h-GABAA α1β3γ2, Table 3, reference compounds) |
| --- | --- | --- | --- | --- | --- | --- | --- | --- | --- | --- | --- | --- |
| CNC(=O)c1nc2n(n1)-c1ccc(Cl)c(Cl)c1C(c1c(F)cccc1F)=NC2 [Example 6, 7,8-dichloro-6-(2,6-difluorophenyl)-N-methyl-4H-[1,2,4]triazolo[1,5-a][1,4]benzodiazepine-2-carboxamide] | 0.75 nM | 5.5 nM | 5.5 nM | 1440 nM | 260.9 | 2.42 | 101% | 2.01 | – | – | – | – |
| [2H]C([2H])([2H])NC(=O)c1nc2n(n1)-c1ccc(Cl)c(Cl)c1C(c1c(F)cccc1F)=NC2 [Example 7, 7,8-dichloro-6-(2,6-difluorophenyl)-N-(trideuteriomethyl)-4H-[1,2,4]triazolo[1,5-a][1,4]benzodiazepine-2-carboxamide] | 0.75 nM | 6 nM | 6 nM | 455 nM | 75.6 | 1.88 | 68% | 1.68 | – | – | – | – |
| O=C(c1nc2n(n1)-c1ccc(Cl)c(Cl)c1C(c1c(F)cccc1F)=NC2)N1CCC1 [Example 8, azetidin-1-yl-[7,8-dichloro-6-(2,6-difluorophenyl)-4H-[1,2,4]triazolo[1,5-a][1,4]benzodiazepin-2-yl]methanone] | 1.08 nM | 8.2 nM | 8.2 nM | 368 nM | 44.7 | 1.65 | 98% | 1.98 | – | – | – | – |
| CN(C)C(=O)c1nc2n(n1)-c1ccc(Cl)c(Cl)c1C(c1c(F)cccc1F)=NC2 [Example 9, 7,8-dichloro-6-(2,6-difluorophenyl)-N,N-dimethyl-4H-[1,2,4]triazolo[1,5-a][1,4]benzodiazepine-2-carboxamide] | 1.15 nM | 5.5 nM | 5.5 nM | 989 nM | 179.8 | 2.25 | 123% | 2.23 | 5.5 nM | 179.8 | 2.25 | 989 nM |
| O=C(NC1COC1)c1nc2n(n1)-c1ccc(Cl)c(Cl)c1C(c1c(F)cccc1F)=NC2 [Example 10, 7,8-dichloro-6-(2,6-difluorophenyl)-N-(oxetan-3-yl)-4H-[1,2,4]triazolo[1,5-a][1,4]benzodiazepine-2-carboxamide] | 0.79 nM | 3.1 nM | 3.06 nM | 445 nM | 145.5 | 2.16 | 70% | 1.70 | – | – | – | – |
| COC1CN(C(=O)c2nc3n(n2)-c2ccc(Cl)c(Cl)c2C(c2c(F)cccc2F)=NC3)C1 [Example 11, [7,8-dichloro-6-(2,6-difluorophenyl)-4H-[1,2,4]triazolo[1,5-a][1,4]benzodiazepin-2-yl]-(3-methoxyazetidin-1-yl)methanone] | 0.84 nM | 2.7 nM | 2.71 nM | 451 nM | 166.3 | 2.22 | 62% | 1.62 | – | – | – | – |
| CNC(=O)c1cn2c(n1)CN=C(c1ncccc1F)c1c-2ccc(Cl)c1Cl [Example 12, 7,8-dichloro-6-(3-fluoro-2-pyridyl)-N-methyl-4H-imidazo[1,2-a][1,4]benzodiazepine-2-carboxamide] | 9.3 nM | 36.7 nM | 36.7 nM | 506 nM | 13.8 | 1.14 | 125% | 2.25 | – | – | – | – |
| C[C@@H]1N=C(c2c(F)cccc2F)c2c(ccc(Cl)c2Cl)-n2nc(CO)nc21 [Example 13, [(4S)-7,8-dichloro-6-(2,6-difluorophenyl)-4-methyl-4H-[1,2,4]triazolo[1,5-a][1,4]benzodiazepin-2-yl]methanol] | 0.6 nM | 2.6 nM | 2.58 nM | 368 nM | 142.7 | 2.15 | 59% | 1.59 | – | – | – | – |
| C[C@@H]1N=C(c2c(F)cccc2F)c2c(ccc(Cl)c2Cl)-n2ncnc21 [Example 15, (4S)-7,8-dichloro-6-(2,6-difluorophenyl)-4-methyl-4H-[1,2,4]triazolo[1,5-a][1,4]benzodiazepine] | 0.4 nM | 6 nM | 6 nM | 278 nM | 46.3 | 1.67 | 62% | 1.62 | – | – | – | – |
